In US7943603B2, “Medical uses of a selective estrogen receptor modulator in combination with sex steroid precursors” (Endorecherche, Inc., priority 1998, dated 2011):

Legend:
[1] = tested on: DMBA-induced mammary carcinoma; assay: Development of DMBA-induced mammary carcinoma in the rat; format: in vivo; details: 279 days after DMBA
Protocol: Female Sprague-Dawley rats [Crl:CD(SD)Br] were obtained at 44-46 days of age from Charles River Canada Inc. (St. Constant, Quebec) and housed 2 per cage in a light (12 h light/day; lights on at 07:15 h)-and temperature (22±2° C.)-controlled environment. Animals received Purina rodent chow and tap water ad libitum. The animal studies were conducted in a Canadian Council on Animal Care (CCAC)-approved facility in agreement with the CCAC Guide for Care and Use of Experimental Animals.
Mammary carcinomas were induced by a single intragastric administration of 20 mg of DMBA (Sigma Chemical Co., St. Louis, Mo.) in 1 ml of corn oil at 50-52 days of age. Two months later, tumor measurement was performed biweekly. The two largest perpendicular diameters of each tumor were recorded with calipers to estimate tumor size as described (Asselin et al., Endocrinology 101: 666-671, 1977). Tumor site, size and number were recorded.
(§1) The animals were randomly divided into groups each containing 20 rats with the exception of 40 animals in the control group. […] Treatment was initiated 3 days before the oral administration of DMBA. EM-800 was synthesized in the Medicinal Chemistry Division of our laboratory while DHEA was purchased from Steraloids Inc., Wilton, N.H.
Many of the control animals and some of EM-800- or DHEA-treated animals were sacrificed by cervical dislocation under isoflurane-induced anesthesia 6 months after DMBA administration because of the too large size of tumors. The values of tumor size and number of these rats at sacrifice, together with those measured at later time intervals from the surviving animals, were used for the later analysis of the incidence of tumors, average tumor number per tumor-bearing rat and average tumor size per tumor-bearing animal. […] Rats were sacrificed 279 days after DMBA administration.
Statistical significance was measured according to the multiple range test of Duncan-Kramer (Biometrics 12: 307-310, 1956). Analysis of the incidence of development of mammary tumors was performed using the Fisher's exact test (Conover, Practical nonparametric statistics, 2nd Edition 153-170, 1980). The data are presented as means±S.E.M.

rat = assay: Serum triglyceride and cholesterol levels after 9-month treatment; format: in vivo; details: DHEA 10 mg percutaneously, EM-800 75 μg orally, once daily, alone or in combination, 9 months
Text: as §1
Twenty-four-hour urinary samples were collected at the end of the experiment from the first 9 rats of each group following transfer in metabolic cages (Allentown Caging Equipment Co., Allentown, N.J.). Two urinary samples were collected and analyzed on different days for each animal in order to minimize the influence of daily variation. Therefore, each value shown represents the mean of the two measurements performed on two different days. 0.5 ml of toluene was added into the urine collecting tubes to prevent urine evaporation and bacterial growth and the urinary volume was recorded. Trunk blood was collected at sacrifice and was allowed to clot at 4° C. overnight before centrifugation at 3000 rpm for 30 min.
Fresh samples were used for the assay of urinary creatinine, calcium, and phosphorus as well as serum total alkaline phosphatase (tALP) activity, cholesterol and triglycerides. These biochemical parameters were measured automatically with a Monarch 2000 Chemistry System (Instrumentation Laboratory Co. Lexington, Mass.) under Good Laboratory Practice conditions. Urinary hydroxyproline was measured as described (Podenphant et al., Clinica Chimica Acta 142: 145-148, 1984).

[2] = tested on: ovariectomized (OVX) nude mice supplemented with estrone; assay: Uterine, vaginal and body weight in OVX nude mice bearing ZR-75-1 xenografts; details: OVX+E1 nude mice, 9.5 months
Protocol: A posteriori pairwise comparisons were performed using Fisher's test for least significant difference. Main effects and the interaction of treatments on body weight and organ weight were analyzed using a standard two-way ANOVA with interactions. All ANOVAs were performed using SAS program (SAS Institute, Cary, N.C., USA). Significance of differences were declared using a 2-tailed test with an overall level of 5%.

## CC1=C(c2ccc(OC(=O)C(C)(C)C)cc2)[C@H](c2ccc(OCCN3CCCCC3)cc2)Oc2cc(OC(=O)C(C)(C)C)ccc21 [EM-800, (+)-7-pivaloyloxy-3-(4′-pivaloyloxyphenyl)-4-methyl-2-(4″-(2′″-piperidinoethoxy)phenyl)-2H-benzopyran]
[1]; DHEA 10 mg percutaneously, EM-800 75 μg orally, once daily, control 95%
  incidence of DMBA-induced mammary carcinoma (animals with palpable tumors): 38%
[1]; end of experiment, DHEA 10 mg, EM-800 75 μg daily, control 4.7±0.5
  average tumor number per tumor-bearing animal: 1.4±0.3 tumors/animal
[1]; end of experiment, DHEA 10 mg, EM-800 75 μg daily, control 12.8±1.3
  average tumor area per tumor-bearing animal: 7.7±1.8 cm^2
rat
  decrease of serum cholesterol levels: 45%
  decrease of serum triglyceride levels: 72%
[2]; EM-800 15 μg daily
  vaginal weight: 23 ± 1 mg
[2]; EM-800 15 μg orally daily
  uterine weight: 49 ± 3 mg
[2]; EM-800 50 μg daily
  vaginal weight: 15 ± 1 mg
[2]; EM-800 50 μg orally daily
  uterine weight: 36 ± 2 mg
[2]; EM-800 100 μg daily
  vaginal weight: 11 ± 1 mg
[2]; EM-800 100 μg orally daily
  uterine weight: 32 ± 1 mg
[2]
  effect on body weight adjusted for tumor weight: No significant effect
